Usually EC50 stands for the midpoint of the concentration-response curve.

For the first assay, the system named is FRDA fibroblasts. Briefly: Rescue of BSO-stressed human dermal fibroblasts from Friedreich's Ataxia patients (Calcein AM viability). The assay is classed as cell-based. The conditions noted are these: Homo sapiens, GM04078, 48 h, read-out: Ec50 Average. The procedure:
An initial screen was performed to identify compounds effective for the amelioration of redox disorders. Test samples, 4 reference compounds (idebenone, decylubiquinone, Trolox and alpha-tocopherol), and solvent controls were tested for their ability to rescue FRDA fibroblasts stressed by addition of L-buthionine-(S,R)-sulfoximine (BSO), as described in Jauslin et al., Hum. Mol. Genet. 11(24):3055 (2002), Jauslin et al., FASEB J. 17:1972-4 (2003), and International Patent Application WO 2004/003565. […] This specific BSO-mediated cell death can be prevented by administration of antioxidants or molecules involved in the antioxidant pathway, such as alpha-tocopherol, selenium, or small molecule glutathione peroxidase mimetics. However, antioxidants differ in their potency, i.e. the concentration at which they are able to rescue BSO-stressed FRDA fibroblasts.
MEM (a medium enriched in amino acids and vitamins, catalog no. 1-31F24-I) and Medium 199 (M199, catalog no. 1-21F22-I) with Earle's Balanced Salts, without phenol red, were purchased from Bioconcept. Fetal Calf Serum was obtained from PAA Laboratories. Basic fibroblast growth factor and epidermal growth factor were purchased from PeproTech. Penicillin-streptomycin-glutamine mix, L-buthionine (S,R)-sulfoximine, (+)-alpha-tocopherol, decylubiquinone, and insulin from bovine pancreas were purchased from Sigma. Trolox (6-Hydroxy-2,5,7,8-tetramethylchromane-2-carboxylic acid) was obtained from Fluka. Idebenone was obtained from Chemo Iberica. Calcein AM was purchased from Anaspec. Cell culture medium was made by combining 125 ml M199 EBS, 50 ml Fetal Calf Serum, 100 U/ml penicillin, 100 microgram/ml streptomycin, 2 mM glutamine, 10 microgram/ml insulin, 10 ng/ml EGF, and 10 ng/ml bFGF; MEM EBS was added to make the volume up to 500 ml. A 10 mM BSO solution was prepared by dissolving 444 mg BSO in 200 ml of medium (Invitrogen, Carlsbad, Ca.) with subsequent filter-sterilization. During the course of the experiments, this solution was stored at +4° C. The cells were obtained from the Coriell Cell Repositories (Camden, N.J.; repository number GM04078) and grown in 10 cm tissue culture plates. Every third day, they were split at a 1:3 ratio.
The test samples were supplied in 1.5 ml glass vials. The compounds were diluted with DMSO, ethanol or PBS to result in a 5 mM stock solution. Once dissolved, they were stored at −20° C. Reference antioxidants (idebenone, decylubiquinone, alpha-tocopherol and Trolox) were dissolved in DMSO.
Test samples were screened according to the following protocol:
A culture with FRDA fibroblasts was started from a 1 ml vial with approximately 500,000 cells stored in liquid nitrogen. Cells were propagated in 10 cm cell culture dishes by splitting every third day in a ratio of 1:3 until nine plates were available. Once confluent, fibroblasts were harvested. For 54 micro titer plates (96 well-MTP) a total of 14.3 million cells (passage eight) were re-suspended in 480 ml medium, corresponding to 100 microliters medium with 3,000 cells/well. The remaining cells were distributed in 10 cm cell culture plates (500,000 cells/plate) for propagation. The plates were incubated overnight at 37° C. in a atmosphere with 95% humidity and 5% CO2 to allow attachment of the cells to the culture plate.
10% DMSO (242.5 microliters) was added to a well of the microtiter plate. The test compounds were unfrozen, and 7.5 microliters of a 5 mM stock solution was dissolved in the well containing 242.5 microliters of 10% DMSO, resulting in a 150 micromolar master solution. Serial dilutions from the master solution were made. The period between the single dilution steps was kept as short as possible (generally less than 30 seconds). At least 4 hours after attachment into MTP, cells were then treated with the various compound dilutions.
Plates were kept overnight in the cell culture incubator. […]
Turning to `O=c1ccc2nc3ccc(OCc4ccccc4)cc3oc-2c1` [Compound 1], the EC50 was 1 nM.

For the molecule `COc1ccc2nc3ccc(=O)cc-3oc2c1` [Compound 3], the EC50 was 1 nM.

Turning to `O=c1ccc2nc3ccc(O)cc3oc-2c1` [Compound 4], the EC50 was 84 nM.

As for `CCOc1ccc2nc3ccc(=O)cc-3oc2c1` [Compound 5], the EC50 was 0.8 nM.

The assay is the same for the next values; noted with them: Homo sapiens; compounds of the invention; FRDA fibroblasts (GM04078), 1 mM BSO, 48 h; tested three times; read-out: Ec50 Average.
Turning to `COc1c2nc3ccc(C)cc3oc-2c(C)c(=O)c1OC` [Compound 6], the EC50 is 2 nM.

`COCCN(C)C(=O)c1ccc2nc3c(C)c(C)c(=O)c(C)c-3oc2c1` [Compound 7]: the EC50 is 2 nM.

For the molecule `Cc1c2nc3ccc(C(=O)NCCN4CCOCC4)cc3oc-2c(C)c(=O)c1C` [Compound 8], the EC50 is 3 nM.

In the case of `Cc1ccc2nc3c(C)c(C)c(=O)c(C)c-3oc2c1C` [Compound 9], the EC50 was 4 nM.

Consider `Cc1c2nc3ccc(C(=O)NCCCO)cc3oc-2c(C)c(=O)c1C` [Compound 10], for which the EC50 is 5 nM.

In the case of `Cc1ccc2nc3c(C)c(C)c(=O)c(C)c-3oc2c1` [Compound 11], the EC50 was 5 nM.

With `COCCNC(=O)c1ccc2nc3c(C)c(C)c(=O)c(C)c-3oc2c1` [Compound 12], the EC50 was 6 nM.

In the case of `COc1ccc2nc3c(OC)c(OC)c(=O)c(C)c-3oc2c1` [Compound 13], the EC50 is 12 nM.

Consider `O=c1ccc2nc3ccc(O[C@@H]4O[C@H](CO)[C@H](O)[C@H](O)[C@H]4O)cc3oc-2c1` [Compound 14], for which the EC50 is 16 nM.

Turning to `COCCOCCOCCOCCNC(=O)c1ccc2nc3c(C)c(C)c(=O)c(C)c-3oc2c1` [Compound 15], the EC50 was 17 nM.

In the case of `Cc1c2nc3ccc(C(F)(F)F)cc3oc-2c(C)c(=O)c1C` [Compound 17], the EC50 is 23 nM.

On to `Cc1c2nc3ccc(C(=O)NCCc4ccccc4)cc3oc-2c(C)c(=O)c1C` [Compound 19], for which the EC50 was 25 nM.

For the molecule `Cc1cc(C)c2nc3c(C)c(C)c(=O)c(C)c-3oc2c1` [Compound 20], the EC50 is 26 nM.

Turning to `COC(=O)c1ccc2nc3c(C)c(C)c(=O)c(C)c-3oc2c1` [Compound 21], the EC50 is 50 nM.

Consider `Cc1c2nc3cc(C(F)(F)F)ccc3oc-2c(C)c(=O)c1C` [Compound 22], for which the EC50 was 54 nM.

Turning to `Cc1cc2oc3c(C)c(=O)c(C)c(C)c-3nc2cc1S(C)(=O)=O` [Compound 23], the EC50 is 234 nM.

Still in this assay, the particulars now being: control compounds; FRDA fibroblasts (GM04078), 1 mM BSO, 48 h; average of three values; read-out: EC50 Average.
For the molecule `Cc1c(C)c2c(c(C)c1O)CC[C@@](C)(CCC[C@H](C)CCC[C@H](C)CCCC(C)C)O2` [alpha-tocopherol, reference compound], the EC50 is 300 nM.

The same assay, now with this note: control compounds; FRDA fibroblasts (GM04078), 1 mM BSO, 48 h; first of three experiments; read-out: EC50 Value 1.
`Cc1c(C)c2c(c(C)c1O)CC[C@@](C)(CCC[C@H](C)CCC[C@H](C)CCCC(C)C)O2` [alpha-tocopherol, reference compound]: the EC50 is 400 nM.

The assay is the same for the next values; noted with them: control compounds; FRDA fibroblasts (GM04078), 1 mM BSO, 48 h; second of three experiments; read-out: EC50 Value 2.
As for `Cc1c(C)c2c(c(C)c1O)CC[C@@](C)(CCC[C@H](C)CCC[C@H](C)CCCC(C)C)O2` [alpha-tocopherol, reference compound], the EC50 is 150 nM.

Staying with this assay, now noted: control compounds; FRDA fibroblasts (GM04078), 1 mM BSO, 48 h; third of three experiments; read-out: EC50 Value 3.
Turning to `Cc1c(C)c2c(c(C)c1O)CC[C@@](C)(CCC[C@H](C)CCC[C@H](C)CCCC(C)C)O2` [alpha-tocopherol, reference compound], the EC50 was 350 nM.

Values taken from patent US9670170B2, “Resorufin derivatives for treatment of oxidative stress disorders” (BioElectron Technology Corporation, priority 2013, dated 2017).
